Test results published in ChEMBL document CHEMBL6071160, “Identification of a novel 10-hydroxyevodiamine prodrug as a potent topoisomerase inhibitor with improved aqueous solubility for treatment of hepatocellular carcinoma” (Eur J Med Chem, 2024).
≈ marks a conversion by molar mass, not a printed value.

How the values were obtained:
SK-HEP1 [1] = test: Antiproliferative activity against human SK-HEP1 cells assessed as inhibition of cell proliferation incubated for 72 hrs by MTT assay; format: functional, cell-based; details: SK-HEP1, 72 h
[2] = Aqueous solubility of the compound […] measured after 72 hrs in shaking by HPLC analysis; format: physicochemical
Huh-7 [3] = test: Antiproliferative activity against human Huh-7 cells assessed as inhibition of cell proliferation incubated for 72 hrs by MTT assay; format: functional, cell-based; details: Huh-7, 72 h
HepG2 = test: Antiproliferative activity against human HepG2 cells assessed as inhibition of cell proliferation incubated for 72 hrs by MTT assay; format: functional, cell-based; details: HepG2, 72 h
Huh-7 [4] = test: Induction of apoptosis in human Huh-7 cells assessed as late apoptotic cells at 80 nM measured after 24 hrs by Annexin-V-FITC/PI analysis (reference value: 1.23%); format: functional
SK-HEP1 [5] = test: Induction of apoptosis in human SK-HEP1 cells assessed as viable cells at 80 nM measured after 24 hrs by Annexin-V-FITC/PI analysis (reference value: 97.20%); format: functional; details: read-out: Activity
SK-HEP1 [6] = test: Induction of cell cycle arrest in human SK-HEP1 cells assessed as accumulation of cells at G1 phase 80 nM measured after 24 hrs by flow cytometric assay (reference value: 47.55%); format: functional
SK-HEP1 [7] = test: Induction of apoptosis in human SK-HEP1 cells assessed as necrotic cells at 80 nM measured after 24 hrs by Annexin-V-FITC/PI analysis (reference value: 0.70%); format: functional
Huh-7 [8] = test: Induction of cell cycle arrest in human Huh-7 cells assessed as accumulation of cells at G2 phase 80 nM measured after 24 hrs by flow cytometric assay (reference value: 13.66%); format: functional
SK-HEP1 [9] = test: Induction of cell cycle arrest in human SK-HEP1 cells assessed as accumulation of cells at G2 phase 80 nM measured after 24 hrs by flow cytometric assay (reference value: 22.41%); format: functional
Huh-7 [10] = test: Induction of apoptosis in human Huh-7 cells assessed as necrotic cells at 80 nM measured after 24 hrs by Annexin-V-FITC/PI analysis (reference value: 0.27%); format: functional
SK-HEP1 [11] = test: Induction of apoptosis in human SK-HEP1 cells assessed as late apoptotic cells at 80 nM measured after 24 hrs by Annexin-V-FITC/PI analysis (reference value: 0.64%); format: functional
SK-HEP1 [12] = test: Induction of apoptosis in human SK-HEP1 cells assessed as ROS generation by measuring DCFH2-DA stained cells at 80 nM measured after 24 hrs […] (reference value: 0.14%); format: functional
Huh-7 [13] = test: Induction of cell cycle arrest in human Huh-7 cells assessed as accumulation of cells at G1 phase 80 nM measured after 24 hrs by flow cytometric assay (reference value: 63.01%); format: functional
Huh-7 [14] = test: Induction of apoptosis in human Huh-7 cells assessed as viable cells at 80 nM measured after 24 hrs by Annexin-V-FITC/PI analysis (reference value: 97.46%); format: functional; details: read-out: Activity
SK-HEP1 [15] = test: Induction of apoptosis in human SK-HEP1 cells assessed as loss of mitochondrial membrane potential by measuring JC-1 stained cells at 80 nM measured after 24 hrs by JC-1 staining based flow cytometry (reference value: 0.49%); format: functional
Huh-7 [16] = test: Induction of cell cycle arrest in human Huh-7 cells assessed as accumulation of cells at S phase 80 nM measured after 24 hrs by flow cytometric assay (reference value: 23.33%); format: functional
SK-HEP1 [17] = test: Induction of apoptosis in human SK-HEP1 cells assessed as early apoptotic cells at 80 nM measured after 24 hrs by Annexin-V-FITC/PI analysis (reference value: 1.45%); format: functional
SK-HEP1 [18] = test: Induction of cell cycle arrest in human SK-HEP1 cells assessed as accumulation of cells at S phase 80 nM measured after 24 hrs by flow cytometric assay (reference value: 30.04%); format: functional
Huh-7 [19] = test: Induction of apoptosis in human Huh-7 cells assessed as loss of mitochondrial membrane potential by measuring JC-1 stained cells at 80 nM measured after 24 hrs by JC-1 staining based flow cytometry (reference value: 2.27%); format: functional
Huh-7 [20] = test: Induction of apoptosis in human Huh-7 cells assessed as ROS generation by measuring DCFH2-DA stained cells at 80 nM measured after 24 hrs […] (reference value: 0.45%); format: functional
Huh-7 [21] = test: Induction of apoptosis in human Huh-7 cells assessed as early apoptotic cells at 80 nM measured after 24 hrs by Annexin-V-FITC/PI analysis (reference value: 1.04%); format: functional
[22] = Drug resistance index, ratio of IC50 for antiproliferative activity against human SMMC-7721 cells to antiproliferative activity against human Doxorubicin-resistant SMMC-7721 cells; format: functional
SMMC-7721 = test: Antiproliferative activity against human SMMC-7721 cells assessed as inhibition of cell proliferation incubated for 72 hrs by MTT assay; format: functional, cell-based; details: SMMC-7721, 72 h
[23] = Antiproliferative activity against human Doxorubicin-resistant SMMC-7721 cell assessed as inhibition of cell proliferation incubated for 72 hrs by MTT assay; format: functional, cell-based; details: SMMC-7721, 72 h

Structure (SMILES) | IC50 (SK-HEP1 [1]) [nM] | solubility thermodynamic at 72 h [2] [µg/mL] | IC50 (Huh-7 [3]) [nM] | IC50 (HepG2) [nM] | also measured
O=C1c2cc(F)cc(F)c2N(c2cccc(F)c2)C2c3[nH]c4ccc(OCCO)cc4c3CCN12 (stereo not drawn) | 200 | 9.5 (≈ 19.8 µM) | 120 | 280 | 
O=C(Oc1ccc2[nH]c3c(c2c1)CCN1C(=O)c2cc(F)cc(F)c2N(c2cccc(F)c2)C31)N1CCC(N2CCCCC2)CC1 (stereo not drawn) | > 1620 | 34.5 (≈ 54.8 µM) | > 1620 | > 1620 | 
CN1CCN(CCOc2ccc3[nH]c4c(c3c2)CCN2C(=O)c3cc(F)cc(F)c3N(c3cccc(F)c3)C42)CC1 (stereo not drawn) | > 1620 | 103 (≈ 183 µM) | > 1620 | > 1620 | 
O=C1c2cc(F)cc(F)c2N(c2cccc(F)c2)C2c3[nH]c4ccc(OCCCN5CCCCC5)cc4c3CCN12 (stereo not drawn) | > 1620 | 100 (≈ 179 µM) | > 1620 | > 1620 | 
O=C(Oc1ccc2[nH]c3c(c2c1)CCN1C(=O)c2cc(F)cc(F)c2N(c2cccc(F)c2)C31)N1CCNCC1 (stereo not drawn) | > 1620 | 1.5 (≈ 2.74 µM) | > 1620 | > 1620 | 
COCC(=O)Oc1ccc2[nH]c3c(c2c1)CCN1C(=O)c2cc(F)cc(F)c2N(c2cccc(F)c2)C31 (stereo not drawn) | 40 | 3 (≈ 5.91 µM) | 40 | 90 | 
O=C1c2cc(F)cc(F)c2N(c2cccc(F)c2)C2c3[nH]c4ccc(OCCN5CCNCC5)cc4c3CCN12 (stereo not drawn) | > 1620 | 50.5 (≈ 92.2 µM) | > 1620 | > 1620 | 
CN(C)C(=O)Oc1ccc2[nH]c3c(c2c1)CCN1C(=O)c2cc(F)cc(F)c2N(c2cccc(F)c2)C31 (stereo not drawn) | > 1620 | 3.1 (≈ 6.12 µM) | > 1620 | > 1620 | 
O=C(CCN1CCCC1)Oc1ccc2[nH]c3c(c2c1)CCN1C(=O)c2cc(F)cc(F)c2N(c2cccc(F)c2)C31 (stereo not drawn) | 30 | 10.1 (≈ 18 µM) | 40 | 80 | 
O=C(CO)Oc1ccc2[nH]c3c(c2c1)CCN1C(=O)c2cc(F)cc(F)c2N(c2cccc(F)c2)C31 (stereo not drawn) | 40 | 0.7 (≈ 1.42 µM) | 70 | 180 | 
O=C1c2cc(F)cc(F)c2N(c2cccc(F)c2)C2c3[nH]c4ccc(OCCCN5CCOCC5)cc4c3CCN12 (stereo not drawn) | > 1620 | 11.6 (≈ 20.6 µM) | > 1620 | > 1620 | 
O=C1c2cc(F)cc(F)c2N(c2cccc(F)c2)C2c3[nH]c4ccc(O)cc4c3CCN12 (stereo not drawn) |  | 1 (≈ 2.3 µM) | 50 |  | Activity (Huh-7 [4]): 10.46%; viability at 0.08 µM (SK-HEP1 [5]): 66.2%; Activity (SK-HEP1 [6]): 8.18%; Activity (SK-HEP1 [7]): 1.19%; Activity (Huh-7 [8]): 86.71%; Activity (SK-HEP1 [9]): 66.31%; Activity (Huh-7 [10]): 1.63%; Activity (SK-HEP1 [11]): 10.49%; Activity (SK-HEP1 [12]): 61.44%; Activity (Huh-7 [13]): 5.79%; viability at 0.08 µM (Huh-7 [14]): 81.1%; Activity (SK-HEP1 [15]): 10.75%; Activity (Huh-7 [16]): 7.51%; Activity (SK-HEP1 [17]): 22.1%; Activity (SK-HEP1 [18]): 25.51%; Activity (Huh-7 [19]): 10.62%; Activity (Huh-7 [20]): 31.15%; Activity (Huh-7 [21]): 6.84%
CN(C)CCC(=O)Oc1ccc2[nH]c3c(c2c1)CCN1C(=O)c2cc(F)cc(F)c2N(c2cccc(F)c2)C31 (stereo not drawn) | 40 | 11.8 (≈ 22.1 µM) | 40 | 40 | 
COP(=O)(OC)Oc1ccc2[nH]c3c(c2c1)CCN1C(=O)c2cc(F)cc(F)c2N(c2cccc(F)c2)C31 (stereo not drawn) | > 1620 | 1.9 (≈ 3.5 µM) | > 1620 | > 1620 | 
O=C1c2cc(F)cc(F)c2N(c2cccc(F)c2)C2c3[nH]c4ccc(OCCCN5CCCC5)cc4c3CCN12 (stereo not drawn) | > 1620 | 61.1 (≈ 112 µM) | > 1620 | > 1620 | 
COCCOc1ccc2[nH]c3c(c2c1)CCN1C(=O)c2cc(F)cc(F)c2N(c2cccc(F)c2)C31 (stereo not drawn) | 1580 | 1.3 (≈ 2.63 µM) | 1530 | 1280 | 
CN(C)CCOc1ccc2[nH]c3c(c2c1)CCN1C(=O)c2cc(F)cc(F)c2N(c2cccc(F)c2)C31 (stereo not drawn) | 1380 | 53 (≈ 105 µM) | 430 | 800 | 
O=C1c2cc(F)cc(F)c2N(c2cccc(F)c2)C2c3[nH]c4ccc(OCCN5CCOCC5)cc4c3CCN12 (stereo not drawn) | > 1620 | 9.5 (≈ 17.3 µM) | > 1620 | > 1620 | 
CC(O)COc1ccc2[nH]c3c(c2c1)CCN1C(=O)c2cc(F)cc(F)c2N(c2cccc(F)c2)C31 (stereo not drawn) | 730 | 12.2 (≈ 24.7 µM) | 190 | 510 | 
O=C1c2cc(F)cc(F)c2N(c2cccc(F)c2)C2c3[nH]c4ccc(OCCN5CCCCC5)cc4c3CCN12 (stereo not drawn) | > 1620 | 34.3 (≈ 62.8 µM) | > 1620 | > 1620 | 
COc1cccc2c1C(=O)c1c(O)c3c(c(O)c1C2=O)C[C@@](O)(C(=O)CO)C[C@@H]3O[C@H]1C[C@H](N)[C@H](O)[C@H](C)O1 [DOXORUBICIN] |  |  |  |  | Ratio [22]: 9; IC50 (SMMC-7721): 150 nM; IC50 [23]: 1350 nM
CN(C)CC(=O)Oc1ccc2[nH]c3c(c2c1)CCN1C(=O)c2cc(F)cc(F)c2N(c2cccc(F)c2)C31 (stereo not drawn) | 30 | 8.7 (≈ 16.7 µM) | 40 | 100 | 
O=C(O)CCC(=O)Oc1ccc2[nH]c3c(c2c1)CCN1C(=O)c2cc(F)cc(F)c2N(c2cccc(F)c2)C31 (stereo not drawn) | 90 | 6.1 (≈ 11.4 µM) | 20 | 70 | 
COCCCOc1ccc2[nH]c3c(c2c1)CCN1C(=O)c2cc(F)cc(F)c2N(c2cccc(F)c2)C31 (stereo not drawn) | > 1620 | 71.4 (≈ 141 µM) | > 1620 | > 1620 | 
CNC(=O)c1cc(Oc2ccc(NC(=O)Nc3ccc(Cl)c(C(F)(F)F)c3)cc2)ccn1 [SORAFENIB] |  |  |  |  | IC50 (SMMC-7721): 3460 nM; IC50 [23]: 5120 nM
CC[C@@]1(O)C(=O)OCc2c1cc1n(c2=O)Cc2cc3c(CN(C)C)c(O)ccc3nc2-1 [TOPOTECAN] | 1510 |  | 3750 | 1040 | 
CCN(CC)C(=O)Oc1ccc2[nH]c3c(c2c1)CCN1C(=O)c2cc(F)cc(F)c2N(c2cccc(F)c2)C31 (stereo not drawn) | > 1620 | 5.5 (≈ 10.3 µM) | > 1620 | > 1620 | 
O=C(O)COc1ccc2[nH]c3c(c2c1)CCN1C(=O)c2cc(F)cc(F)c2N(c2cccc(F)c2)C31 (stereo not drawn) | > 1620 | 72.5 (≈ 147 µM) | > 1620 | > 1620 | 
CC(C)(O)COc1ccc2[nH]c3c(c2c1)CCN1C(=O)c2cc(F)cc(F)c2N(c2cccc(F)c2)C31 (stereo not drawn) | 920 | 2.5 (≈ 4.93 µM) | 530 | 1240 | 
